Data taken from patent publication US20240042019A1, “OPTIMIZED TLR7 LIGANDS AND USES THEREOF” (Genentech, Inc., priority 2021, published 2024).
Like-named read-outs stand apart in the source and are kept apart here. Oligonucleotides are written 5' to 3', each unit as a sugar letter and its base; * is a phosphorothioate linkage, no mark a phosphodiester; rarer units and linkages stand in square brackets, end groups in braces. Plain capitals give the bases only. m = 2'-O-methyl; r = 2'-OH (RNA); f = 2'-fluoro

Experiments:
Type in all cases: cell-based
[1] = target: T1, TLR8 (Homo sapiens, UniProt Q9NR97); test: PBMC stimulation with p-L-arginine-complexed RNA ligands, TNF-α ELISA; settings: human PBMCs, p-L-arginine complexes with 2′3′ cyclic GMP 5 μg/ml, ORN 0.6 μg/ml (FIG. 12)
T1 construct: Peripheral blood mononuclear cells (PBMCs) were obtained from buffy coats from healthy adult donors; endogenous in cells; host or cells: primary human PBMCs from healthy donor buffy coats (TLR8 in monocytes)
T1 sequence (Q9NR97 27-1041): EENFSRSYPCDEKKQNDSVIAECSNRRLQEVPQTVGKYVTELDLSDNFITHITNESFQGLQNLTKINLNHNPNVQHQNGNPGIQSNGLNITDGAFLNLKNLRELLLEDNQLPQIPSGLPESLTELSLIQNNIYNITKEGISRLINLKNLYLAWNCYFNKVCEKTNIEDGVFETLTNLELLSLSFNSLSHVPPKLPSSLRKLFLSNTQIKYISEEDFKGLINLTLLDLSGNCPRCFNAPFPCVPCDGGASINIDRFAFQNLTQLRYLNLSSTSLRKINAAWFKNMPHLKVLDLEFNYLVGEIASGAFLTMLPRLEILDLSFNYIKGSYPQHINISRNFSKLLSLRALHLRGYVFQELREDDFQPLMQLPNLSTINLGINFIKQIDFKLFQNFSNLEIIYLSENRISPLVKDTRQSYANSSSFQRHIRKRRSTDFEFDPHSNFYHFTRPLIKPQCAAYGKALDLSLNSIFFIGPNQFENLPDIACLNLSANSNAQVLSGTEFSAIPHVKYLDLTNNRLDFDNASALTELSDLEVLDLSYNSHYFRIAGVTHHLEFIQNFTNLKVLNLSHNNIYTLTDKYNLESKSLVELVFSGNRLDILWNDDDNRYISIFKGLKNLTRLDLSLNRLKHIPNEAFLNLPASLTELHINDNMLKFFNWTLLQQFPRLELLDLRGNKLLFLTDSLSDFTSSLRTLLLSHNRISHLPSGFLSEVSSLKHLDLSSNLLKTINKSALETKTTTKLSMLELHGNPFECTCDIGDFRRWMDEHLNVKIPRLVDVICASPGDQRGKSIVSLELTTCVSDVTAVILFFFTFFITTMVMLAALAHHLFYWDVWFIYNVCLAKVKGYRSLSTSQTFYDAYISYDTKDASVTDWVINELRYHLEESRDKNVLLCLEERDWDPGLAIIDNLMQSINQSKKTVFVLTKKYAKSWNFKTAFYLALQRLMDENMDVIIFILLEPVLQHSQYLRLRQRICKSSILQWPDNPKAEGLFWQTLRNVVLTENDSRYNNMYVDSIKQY
Experimental: (§1) Peripheral blood mononuclear cells (PBMCs) were obtained from buffy coats from healthy adult donors. Buffy coat samples were first diluted with an equal volume of phosphate-buffered saline (PBS). Next, PBMCs were isolated via density gradient centrifugation with Lymphoprep density gradient media ([…] Technologies) and SepMate-50 tubes ([…] Technologies). Samples were centrifuged at 1000 g for 15 minutes. After centrifugation, the upper layers were collected by pouring into a new tube, diluted with PBS, and centrifuged at 450×g for 5 minutes. To lyse red blood cells, cell pellets were resuspended with 10 mL Ammonium-Chloride-Potassium (ACK) Lysis Buffer and incubated for 8 minutes at room temperature. After lysis, cells were washed with PBS and passed through two 70 μm cell strainers. Viable cell counts were determined with a Vi-CELL cell counter (Beckman Coulter). […] Guanosine was added between about 20 and about 30 minutes before the addition of poly-[…])-complexed RNA. […] After mixing by pipetting up and down, the reaction was incubated for 10 minutes, pipetted up and down again, and then added to the cells. In some experiments, RNA ligands were used at a final concentration of 0.6 μg/ml. Where indicated as “+2'3' cGMP”, 2'3' cyclic GMP purchased from eMolecules was complexed together with the RNA ligands. The final concentration of 2'3' cyclic GMP was 5 μg/ml. p-L-arginine was adjusted accordingly to keep the mass ratio of nucleic acid:p-L-arginine constant. Cell culture supernatants were collected 15-18 hours after stimulation and stored at -80° C. Cytokines in cell culture supernatants were detected with the BD OptEIA human TNF ELISA Set (BD Biosciences), and either Invitrogen IFN alpha Human Matched Antibody Pair kit (Thermo Fisher Scientific) or Human IFN Alpha Multi-Subtype ELISA Kit (PBL Assay Science). To test the effects of the RNA ligands described in Example 1 on TLR7 and TLR8 activation, PBMCs were stimulated with the RNA ligands using p-L-arginine complex delivery, delivery with DOTAP, or delivery without a carrier. Activity of TLR7 and TLR8 was assessed based on measurements of IFN-α or TNF-α by enzyme-linked immunosorbent assays (ELISA). In this setting, as depicted in FIG. 6, IFN-α induced by small RNAs is derived from TLR7 expressed by pDCs, or from RIG-I expressed by monocytes. In contrast, TNF-α secretion is derived from monocytes and serves as an indication of TLR8 activation. As shown in this figure, the p-L-arginine delivery restricts most of the activation to TLRs. First, the effects of the RNA ligands on TLR7 and TLR8 activation using p-L-arginine complex delivery were tested.

[2] = target: T2, TLR7 (Homo sapiens, UniProt Q9NYK1); test: PBMC stimulation with p-L-arginine-complexed RNA ligands, IFN-α ELISA; settings: human PBMCs; for IFN-α secretion when co-delivered with 2′3′ cGMP: p-L-arginine complexes with 2′3′ cyclic GMP 5 μg/ml, ORN 0.6 μg/ml (FIG. 12); for IFN-α secretion (TLR7 activity): p-L-arginine delivery, 16 hours, ELISA (FIG. 7)
T2 construct: Peripheral blood mononuclear cells (PBMCs) were obtained from buffy coats from healthy adult donors; endogenous in cells; host or cells: primary human PBMCs from healthy donor buffy coats (TLR7 expressed by pDCs)
T2 sequence (Q9NYK1 27-1049): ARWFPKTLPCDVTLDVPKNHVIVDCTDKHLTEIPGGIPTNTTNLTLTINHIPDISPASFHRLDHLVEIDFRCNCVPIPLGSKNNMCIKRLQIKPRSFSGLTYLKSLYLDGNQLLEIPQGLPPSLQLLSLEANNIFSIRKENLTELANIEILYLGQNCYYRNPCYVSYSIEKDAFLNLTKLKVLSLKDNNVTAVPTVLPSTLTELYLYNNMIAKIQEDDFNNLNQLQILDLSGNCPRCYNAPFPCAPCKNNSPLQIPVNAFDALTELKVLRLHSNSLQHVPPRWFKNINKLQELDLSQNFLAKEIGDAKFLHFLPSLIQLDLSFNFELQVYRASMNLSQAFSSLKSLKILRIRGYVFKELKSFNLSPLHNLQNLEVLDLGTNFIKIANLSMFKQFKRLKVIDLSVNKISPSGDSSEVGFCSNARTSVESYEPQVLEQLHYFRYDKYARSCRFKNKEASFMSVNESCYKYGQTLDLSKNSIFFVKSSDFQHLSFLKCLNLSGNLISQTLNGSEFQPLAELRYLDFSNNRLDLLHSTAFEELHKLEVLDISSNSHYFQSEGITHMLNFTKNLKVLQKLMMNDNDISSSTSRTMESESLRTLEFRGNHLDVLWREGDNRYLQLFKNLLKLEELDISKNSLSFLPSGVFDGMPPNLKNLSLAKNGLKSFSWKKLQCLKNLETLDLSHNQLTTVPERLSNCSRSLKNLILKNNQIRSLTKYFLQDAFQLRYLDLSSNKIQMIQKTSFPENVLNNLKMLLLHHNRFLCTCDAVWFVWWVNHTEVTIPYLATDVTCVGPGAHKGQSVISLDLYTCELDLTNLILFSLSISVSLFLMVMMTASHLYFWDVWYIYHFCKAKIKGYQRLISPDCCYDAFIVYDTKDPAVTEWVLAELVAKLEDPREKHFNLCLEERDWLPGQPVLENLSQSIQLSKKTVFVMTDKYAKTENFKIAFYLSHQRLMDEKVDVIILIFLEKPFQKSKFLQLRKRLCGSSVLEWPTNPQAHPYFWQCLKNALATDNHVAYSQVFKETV
Experimental: as §1

[3] = target: T2, TLR7; test: PBMC stimulation with DOTAP-complexed RNA ligands, IFN-α ELISA
[4] = target: T1, TLR8; test: PBMC stimulation with DOTAP-complexed RNA ligands, TNF-α ELISA
[5] = human PBMCs, DOTAP delivery, 2 μg/ml (FIG. 10B)
[6] = human PBMCs, DOTAP delivery, 0.6 μg/ml and 2 μg/ml, 16 hours (FIGS. 10A-10B)

Substance | IFN-α secretion (TLR7 activity) [2] | IFN-α secretion (TLR7 activity) [3, 6] | TNF-α secretion (TLR8 activity) [4, 6] | also measured
C-C-fU-U-C-fU-U-C-fU-U-C-fU-U-C-fU-U-C-fU-U-C (rCrCfUrUrCfUrUrCfUrUrCfUrUrCfUrUrCfUrUrC) [ORN7011, 2′-fluoro-modified version of ORN7009] | – | – | – | TNF-α secretion when co-delivered with 2′3′ cyclic GMP [1]: little to no measurable TNF-α; IFN-α secretion when co-delivered with 2′3′ cGMP [2]: robust IFN-a induction; IFN-α secretion (TLR7 activity) [3, 5]: had TLR7-activity; TNF-α secretion (TLR8 activity) [4, 5]: without TLR8 activity
C-G-G-fC-U-C-G-G-C-A-G-A-A-G-C-C-G-G-G-C-C (rCrGrGfCrUrCrGrGrCrArGrArArGrCrCrGrGrGrCrC; hairpin) [ORN7023F, 2′-fluoro-C-modified ORN7023] | further increasing the activity | – | – | TLR7 selectivity (IFN-α versus TNF-α secretion) ([2]; p-L-arginine delivery (FIG. 7)): maintained TLR7 selectivity
C-C-G-A-G-C-C-G-C-fU-U*fU-U*C-C-C (rCrCrGrArGrCrCrGrCfUrU*fUrU*rCrCrC) [ORN7019, 2′-fluoro-modified and phosphodiester-linked version of ORN7013] | – | – | – | IFN-α secretion (TLR7 activity) ([3]; human PBMCs, DOTAP delivery, 0.6 μg/ml (FIG. 10A)): selective TLR7 activation; TNF-α secretion (TLR8 activity) [4, 5]: also had TLR8-activity
C-A-G-A-C-C*U*U*C-C-A-G-A-C-C*U*U*C (CAGACCUUCCAGACCUUC; linkages o5 s3 o6 s3 (s phosphorothioate, o phosphodiester), sugars by position not given here) [ORN7004] | – | – | – | IFN-α secretion (TLR7 activity) [3]: mildly increased TLR7 activity; TNF-α secretion (TLR8 activity) [4]: markedly increased TLR8 activity
C-A-G-A-C-C-U-U-C-C-A-G-A-C-C-U-U-C (CAGACCUUCCAGACCUUC; unmodified RNA) [ORN7001, de novo designed ligand] | no or only minor IFN-α secretion | induced TLR7 and TLR8 activity | induced TLR7 and TLR8 activity | –
U*C*U*C*U*C*U*C*U*C*U*C*U*C*U*C*U*C*U*C (rU*rC*rU*rC*rU*rC*rU*rC*rU*rC*rU*rC*rU*rC*rU*rC*rU*rC*rU*rC) [ORN7008] | – | – | further increased TLR8 activation | –
U-mC-U-mC-U-mC-U-mC-U-mC-U-mC-U-mC-U-mC-U-mC-U-C (rUmCrUmCrUmCrUmCrUmCrUmCrUmCrUmCrUmCrUrC) [ORN7006, 2′O-methyl-modified version of ORN7005] | – | reduced both TLR8 and TLR7 activation | reduced both TLR8 and TLR7 activation | TNF-α secretion when co-delivered with 2′3′ cyclic GMP [1]: little to no measurable TNF-α; IFN-α secretion when co-delivered with 2′3′ cGMP [2]: robust IFN-a induction
UCUCUCUCUCUCUCUCUCUC (UCUCUCUCUCUCUCUCUCUC; unmodified RNA) [ORN7005, derived from pU1C of Zhang et al., 2018, reference compound] | no or only minor IFN-α secretion | activated TLR8 rather than TLR7 | activated TLR8 | IFN-α response to RNA ligand alone (no 2′3′ cGMP) ([2]; p-L-arginine alone, ORN 0.6 μg/ml, one donor (FIGS. 12, 16A-16B)): unexpectedly high IFN-α response
C-C-mU-U-C-mU-U-C-mU-U-C-mU-U-C-mU-U-C-mU-U-C (rCrCmUrUrCmUrUrCmUrUrCmUrUrCmUrUrCmUrUrC) [ORN7010, 2′O-methyl-modified version of ORN7009] | – | reduced both TLR8 and TLR7 activation | reduced both TLR8 and TLR7 activation | TNF-α secretion when co-delivered with 2′3′ cyclic GMP [1]: little to no measurable TNF-α; IFN-α secretion when co-delivered with 2′3′ cGMP [2]: robust IFN-a induction
C-C-G-A-G-C-C-G-C*U*U*U*U*C-C-C (rCrCrGrArGrCrCrGrC*rU*rU*rU*rU*rCrCrC) [ORN7022, phosphodiester-linked version of ORN7013] | – | activated both TLR7 and TLR8 | activated both TLR7 and TLR8 | –
C*G*G*C*U*C*G*G*C*A*G*A*A*G*C*C*G*G*G*C*C (rC*rG*rG*rC*rU*rC*rG*rG*rC*rA*rG*rA*rA*rG*rC*rC*rG*rG*rG*rC*rC) [ORN7024] | reduced activity | – | – | –
